Experimental data from patent publication US11065249B2, “Diacylglycerol acyl transferase 2 inhibitor” (Pfizer Inc., priority 2019, dated 2021).
In brackets after ≈: the same amount, converted by molar mass. Structures can show the parent of a compound that is named as a salt.

Columns and labels:
[1] = High throughput determination of intrinsic clearance in human hepatocytes; format: in vitro ADME; conditions: human, pooled cryopreserved human hepatocytes (suspension), high throughput human hepatocyte assay, 1 μM test compound; mean +/− Std Dev
Method: (§1) The incubation was carried out at 37° C. […] The samples were centrifuged (Eppendorf, Hauppauge, N.Y.) at 3000 rpm for 5 min at 4° C.

[2] = Determination of pKa (capillary electrophoresis, Analiza); format: physicochemical; conditions: most basic pKa, mean
[3] = Intrinsic clearance in human liver microsomes; format: in vitro ADME; conditions: 1 μM test compound, mean +/− STD Dev; for microsomal CLint at 1 μM: human, pooled human liver microsomes, pH 7.4, human liver microsome assay; for CLint (+/−STD Dev): human liver microsome assay
Method: The incubations were conducted at 37° C. […] (Sorvall R C 3C Plus, Thermo Scientific, Waltham, Mass.).

[4] = target: DGAT2 in human hepatocytes (Homo sapiens (Human), UniProt Q96PD7); experiment: Determination of IC50 values for DGAT2 inhibitors in human hepatocytes; format: cell-based; conditions: inhibition of DGAT2 in human hepatocytes; geometric mean
Method: For evaluation of the effects of DGAT2 inhibitors in a cell-based setting, cryopreserved human hepatocytes (Lot DOO, Celsis, Baltimore, Md.) were thawed and plated onto type I collagen-coated plates according to the manufacturer's instructions. After 18 hours overnight recovery period, the cells were overlayed with media containing 250 μg/mL Geltrex Basement Membrane Matrix (Thermo Fisher). The following day, media was aspirated and replaced with serum-free Williams Media E (Thermo Fisher) containing 400 μM sodium dodecanoate (Sigma-Aldrich, St. Louis, Mo.) and 2 mM GlutaMAX (Thermo Fisher). […] DGAT2 inhibitors were then added to the desired final concentration. After a 15 minute preincubation, 0.2 μCi [^14C(U)]-glycerol (Perkin Elmer) was added to each well followed by a 3 hour incubation. At this point the media was removed, and the cells lysed via orbital shaking in isopropyl alcohol:tetrahydrofuran (9:1) for 15 minutes prior to centrifugation at 3000 rpm for 10 minutes. Radiolabeled lipids were resolved using a solvent system by thin layer chromatography with the solvent consisting of hexanes:diethyl ether:glacial acetic acid (75:23:2, v/v/v). After separation, radiolabeled lipids were visualized using the Typhoon 9500 phosphorimaging system (GE). The half maximal inhibitory concentrations (IC50 values) were determined by nonlinear regression analysis of the % inhibition dose response curve using GraphPad Prism (GraphPad Software, Inc., La Jolla, Calif.).
Table 5 below provides the IC50 values of selected Examples for inhibition of DGAT2 in human hepatocytes in accordance with the above-described assay. Results are reported as geometric mean IC50 values, with the number of replicates (n) shown.

[5] = Thermodynamic solubility in various biorelevant media (PBS, SGN, FaSSIF, FeSSIF); format: physicochemical
Method: The solubility of active pharmaceutical ingredients is an important characteristic in determining biological performance and ease of formulation during drug development, with high solubility being preferred (Klein, S. 2010, The AAPS Journal, 12, 397-406; Di, L., et al 2012, Drug Disc. Today, 17.486-495). A test sample of crystalline solid (˜7 mg) was combined in a vial with 1 mL of the relevant buffer solution and the mixture vortexed to combine. If the solid dissolved completely, additional solid was added with vortexing until a saturated solution was obtained. The saturated solution/solid mixture was capped and subjected to temperature cycling as follows: 1 min at 25° C.; 8 h at 40° C.; 5 h at 15° C. and 12 h at 25° C. The mixture was filtered in a centrifugal filtration device (0.22 μm PVDF filter, MilliporeSigma, Milwaukee, Wis.) at 13,000 rpm and the concentration of the test compound in the filtrate was determined by HPLC/UPLC with reference to a three point standard curve. Phosphate buffered saline (PBS, pH 6.8, 50 mM phosphate buffer, 250 mM NaCl). Simulated gastric fluid (SGN pH 1.2, USP recipe). Fasted state simulated intestinal fluid (FaSSIF, 3 mM sodium taurocholate, 0.75 mM phospholipid from soybean lecithin, 50 mM phosphate buffer, ionic strength adjusted to 250 mM with NaCl, pH 6.8) and fed state simulated intestinal fluid (FeSSIF, 15 mM sodium taurocholate, 3.75 mM phospholipid from soybean lecithin, 144 mM acetic acid, 50 mM phosphate buffer, ionic strength adjusted to 250 mM with NaCl, pH 6.8).

[6] = tested on: human hepatocytes; experiment: High throughput determination of intrinsic clearance in human hepatocytes; format: in vitro ADME; conditions: high throughput human hepatocyte assay, 1 μM test compound; mean +/− Std Dev
Method: as §1

[7] = tested on: human hepatocytes; experiment: Intrinsic clearance in human hepatocytes (relay method); format: in vitro ADME; conditions: relay hepatocyte assay, 1 μM test compound, mean +/− Std Dev
Method: (§2) Cryopreserved human hepatocytes (Lot DCM from BioreclamationIVT) were used. […] At time 0 and 4 h, 25 μL of hepatocyte suspension was removed from the incubation and added to 50 μL of ice-cold acetonitrile (containing metoprolol, indomethacin, and terfenadine as internal standards) to quench the reaction. The samples were centrifuged (Eppendorf, Hauppauge, N.Y.) at 3000 rpm (1439×g) for 10 min at room temperature, and 50 μL of supernatant was transferred to a clean plate, dried completely, and reconstituted before liquid chromatography/tandem mass spectrometry (LC-MS/MS) analysis. The remaining hepatocyte suspensions in the incubation plate were centrifuged (3000 rpm, 1439×g, 10 min, room temperature). The supernatant of 300 μL was transferred to a clean 24-well plate and stored at −80° C. until the next relay experiment. For the second relay experiment, the supernatant plates were warmed first to room temperature for 30 minutes, then to 37° C. for 30 min, and hepatocytes were added to the samples to give a final cell density of 0.5 million cells/mL. The plates were incubated at 37° C. for 4 h, sampled, and processed as described above. Five relays were performed to give a total incubation time of 20 h, with sampling points at (0, 4, 8, 12, 16 and 20 h). The concentrations of test compound determined at each time point by the LC-MS/MS analysis were used to calculate the intrinsic clearance.

[8] = target: human DGAT2 (hDGAT2) (Homo sapiens (Human), UniProt Q96PD7); experiment: In vitro DGAT2 assay, determination of IC50 values for DGAT2 inhibitors; format: biochemical; conditions: inhibition of DGAT2, hDGAT2 membrane fractions; geometric mean
Method: Recombinant baculovirus for the FLAG-tagged hDGAT2 was generated in SF9 insect cells using Bac-to-Bac baculovirus expression system (Invitrogen) according to the manufacturer's protocol. For the expression of hDGAT2, SF9 cells (20 L) grown in Sf900II media were infected with hDGAT2 baculovirus at a multiplicity of infection of 1 in a Wave Bioreactor System 20/50P wave bag (GE Healthcare). After 40 hours of infection, the cells were then harvested by centrifugation at 5,000×g. The cell pellets were washed by resuspending in phosphate buffered saline (PBS) and collected by centrifugation at 5,000×g. The cell paste was flash frozen in liquid N2 and stored at −80° C. until needed. All operations below were at 4° C. unless otherwise noted. The cells were resuspended in lysis buffer (50 mM Tris-HCl, pH 8.0, 250 mM sucrose) including 1 mM ethylenediaminetetraacetic acid (EDTA) and the complete protease inhibitor cocktail (Roche Diagnostics) at a ratio of 3 mL buffer per 1 g cell paste. The cells were lysed by dounce homogenizer. The cell debris was removed by centrifugation at 1,000×g for 20 min, and the supernatant was centrifuged at 100,000×g for 1 hour. The resulting pellet was rinsed three times by filling ultracentrifuge tubes to the top with ice cold PBS before decanting. The washed pellet was resuspended with gentle stirring for 1 hour in lysis buffer containing 8 mM 3-[(3-cholamidopropyl)dimethylammonio]-1-propanesulfonate (CHAPS) at a ratio of 1 mL buffer per 1 g of original cell paste and centrifuged again at 100,000×g for 1 hour. The resulting supernatant was aliquotted, flash frozen in liquid N2, and stored at −80° C. until use.
To 1 μL of compounds dissolved in 100% DMSO and spotted at the bottom of each well, 5 μL of 0.04% bovine serum albumin (BSA) (fatty acid free, Sigma Aldrich) was added and the mixture was incubated at room temperature for 15 minutes. hDGAT2 membrane fractions were diluted in 100 mM Hepes-NaOH, pH 7.4, 20 mM MgCl2 containing 200 nM methyl arachidonyl fluorophosphonate (Cayman Chemical, dried from ethyl acetate stock solution under argon gas and dissolved in DMSO as 5 mM stock). 10 μL of this enzyme working solution was added to the plates and incubation continued for 2 hours at room temperature. DGAT2 reactions were initiated by the addition of 4 μL of substrates containing 30 μM [1-^14C]decanoyl-CoA (custom-synthesized by Perkin Elmer, 50 mCi/mmol) and 125 μM 1,2-didecanoyl-sn-glycerol (Avanti Polar Lipids) dissolved in 12.5% acetone. The reaction mixtures were incubated at room temperature for 40 min and the reactions were stopped by addition of 5 μL of 1% H3PO4. After the addition of 45 μL MicroScint-E (Perkin-Elmer), plates were sealed with Top Seal-A covers (Perkin-Elmer) and phase partitioning of substrates and products was achieved using a HT-91100 microplate orbital shaker (Big Bear Automation, Santa Clara, Calif.). Plates were centrifuged at 2,000×g for 1 minute in an Allegra 6R Centrifuge (Beckman Coulter) and then were sealed again with fresh covers before reading in a 1450 Microbeta Wallac Trilux Scintillation Counter (Perkin Elmer). DGAT2 activity was measured by quantifying the generated product [^14C]tridecanoylglycerol in the upper organic phase.
Inhibitors were tested at eleven different concentrations to generate IC50 values for each compound.

[9] = Intrinsic clearance in human hepatocytes (relay method); format: in vitro ADME; conditions: cryopreserved human hepatocytes (suspension), relay hepatocyte assay, 1 μM test compound, mean +/− Std Dev
Method: as §2

Sequence of human DGAT2 (hDGAT2) (Q96PD7 whole entry): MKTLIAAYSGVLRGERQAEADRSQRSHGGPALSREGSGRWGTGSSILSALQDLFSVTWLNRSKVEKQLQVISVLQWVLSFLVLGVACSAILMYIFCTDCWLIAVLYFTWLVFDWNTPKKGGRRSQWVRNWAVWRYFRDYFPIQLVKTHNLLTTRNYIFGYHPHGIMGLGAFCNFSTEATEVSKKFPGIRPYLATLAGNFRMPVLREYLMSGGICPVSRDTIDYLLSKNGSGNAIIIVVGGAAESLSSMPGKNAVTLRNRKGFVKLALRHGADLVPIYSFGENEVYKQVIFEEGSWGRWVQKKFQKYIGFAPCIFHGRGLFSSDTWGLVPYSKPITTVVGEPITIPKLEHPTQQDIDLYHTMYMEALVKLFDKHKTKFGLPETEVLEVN
Sequence of DGAT2 in human hepatocytes (Q96PD7 whole entry): as above

SMILES | hepatocyte CLint at 1 μM [1] [µL/min/1e6 cells] | pKa [2] | microsomal CLint at 1 μM [3] [µL/min/mg] | IC50 [4] [nM] | CLint (+/−Std Dev) [6] | Basic pKa [2] | CLint (+/−STD Dev) [3] [µL/min/mg] | CLint (+/−Std Dev) [7] | IC50 [8] [nM] | other results
CCOc1cccnc1Oc1cncc(-c2ncc(C(=O)N[C@H]3CNC[C@H](F)C3)cn2)c1 [Example 7, 2-{5-[(3-ethoxypyridin-2-yl)oxy]pyridin-3-yl}-N-[(3R,5R)-5-fluoropiperidin-3-yl]pyrimidine-5-carboxamide, trifluoroacetate salt] | < 1.8 | 7.5 | < 7 | 100 | – | – | – | – | – | –
CCOc1cccnc1Oc1cncc(-c2ncc(C(=O)N[C@H]3CCOC3)cn2)c1 [WO2018033832 Ex. 1, Form 2] | – | – | – | – | – | – | – | – | – | Solubility ([5]; FaSSIF pH 6.8): 0.093 mg/mL (≈ 228 µM); Solubility ([5]; PBS, pH 6.8): 0.060 mg/mL (≈ 147 µM); Solubility ([5]; SGN pH 1.2): 1.082 mg/mL (≈ 2660 µM)
CCOc1cccnc1Oc1cncc(-c2ncc(C(=O)NC3(CO)CCOC3)cn2)c1 (single isomer, unassigned) [WO2018033832 Ex. 6a] | – | – | – | – | <3.8 +/− 1.1 μL/min/10^6 cells | 2.3 | 13 ± 2.0 | 3.2 +/− 0.21 μL/min/million cells | – | –
CCOc1cccnc1Oc1cncc(-c2ncc(C(=O)N[C@@H]3CCOC3)cn2)c1 [WO2018033832 Ex. 2] | – | – | – | – | 4.7 +/− 0.55 μL/min/10^6 cells | 2.5 | 17 ± 1.3 | 4.9 +/− 0.17 μL/min/million cells | 200 | –
CCOc1cccnc1Oc1cncc(-c2ncc(C(=O)NC3(CO)CCOC3)cn2)c1 (single isomer, unassigned) [WO2018033832 Ex. 6b] | – | – | – | – | <3.3 +/− 0.49 μL/min/10^6 cells | 2.4 | <11 ± 3.5 | 2.9 +/− 0.057 μL/min/million cells | – | –
CCOc1cccnc1Oc1cncc(-c2ncc(C(=O)N[C@H]3CCOC3)cn2)c1 [WO2018033832 Ex. 1, Form 1] | – | – | – | – | – | – | – | – | – | Solubility ([5]; FaSSIF pH 6.8): 0.069 mg/mL (≈ 169 µM); Solubility ([5]; PBS, pH 6.8): 0.043 mg/mL (≈ 106 µM); Solubility ([5]; SGN pH 1.2): 0.078 mg/mL (≈ 191 µM)
CCOc1cccnc1Oc1cncc(-c2ncc(C(=O)N[C@H]3CCOC3)cn2)c1 [WO2018033832 Ex. 1] | – | – | – | 2.8 | <3.8 +/− 1.1 μL/min/10^6 cells | 2.4 | 11 ± 2.9 | 3.9 +/− 0.52 μL/min/million cells | 17 | –
CCOc1cccnc1Oc1cncc(-c2ncc(C(=O)N[C@@H]3CNCC[C@H]3F)cn2)c1 [Example 5, 2-{5-[(3-Ethoxypyridin-2-yl)oxy]pyridin-3-yl}-N-[(3R,4R)-4-fluoropiperidin-3-yl]pyrimidine-5-carboxamide] | < 1.9 | 7.3 | < 7 | 26 | – | – | – | – | – | hepatocyte CLint at 1 μM [9]: 1.9 µL/min/1e6 cells
CCOc1cccnc1Oc1cncc(-c2ncc(C(=O)N[C@H]3CNC[C@@H](F)C3)cn2)c1 (racemic) [Example 25, rac-2-{5-[(3-ethoxypyridin-2-yl)oxy]pyridin-3-yl}-N-[(3R,5S)-5-fluoropiperidin-3-yl]pyrimidine-5-carboxamide, trifluoroacetate salt] | 6.5 | 6.8 | 11 | > 130 | – | – | – | – | 200 | –
